Reference: patent publication US4042711A, “Derivatives of biphenyloxy-lower alkanoic acids, salts thereof and their use as antihyperlipidemics” (Boehringer Ingelheim GmbH, priority 1975, dated 1977)

Legend:
[1] = system: Cholesterol level in the serum; test: Lipid level lowering activity: serum cholesterol depression in normolipemic rats; type: in vivo, male normolipemic rats; settings: Rattus norvegicus, oral, by regression analysis; for ED20: dose leading to 20% depression of serum cholesterol; for ED15: dose leading to 15% depression of serum cholesterol
Experimental: (§1) The above pharmacologicaly activity of the compounds of this invention, as well as their acute toxicities, were ascertained along with those of the three antihyperlipidemic compounds of the prior art by the standard test methods described below.
The test compound was administered twice by an esophageal tube at 20 hours' interval to male normolipemic rats having a body weight of 250-300 gm. When the test began, the animals were deprived of food, but water was freely accessible to them. 28 and 44 hours later the serum cholesterol and triglyceride-levels were determined. The measurement of cholesterol and triglycerides was effected simultaneously, using an autoanalyzer; the percentage depression was calculated, compared with a control group treated with placebo.
The cholesterol-lowering activity of the test compound was observed after oral administration of one dose and after oral administration of various doses.

Acute toxicity, oral = type: in vivo; settings: mouse, in vivo, white mice, observation time 14 days
Experimental: as §1
(§2) The acute toxicity was determined on groups of 5 or 6 white mice each, after oral administration of the test compound at dosage levels of 2.5 gm/kg, 5 gm/kg and 10 gm/kg (observation time 14 days).

white mice = test: Acute toxicity, oral; type: in vivo; settings: 14 days, at the dose given as LD50
Experimental: as §1, §2

[2] = as disclosed in prior-art patents; cited from earlier work
[3] = see Therapie 27, 385 (1972); cited from earlier work
[4] = 28 hours after beginning of the test
[5] = 44 hours after beginning of the test

SMILES: COc1ccccc1C(=O)NCCc1ccc(-c2ccc(OC(C)(C)C(=O)O)cc2)cc1 [B, 2-methyl-2-{4-[2-(2-methoxy-benzamido)-ethyl]-biphenyl-4'-oxy}-propionic a cid]
- ED20 [1, 4]: 3.1 mg/kg
- ED20 [1, 5]: 0.59 mg/kg
- LD50 at 336 h (Acute toxicity, oral): > 2500 mg/kg
- animals died (white mice): 1 out of 5

SMILES: CCOC(=O)C(C)(C)Oc1ccc(Cl)cc1 [C, ethyl 2-(4-chlorophenoxy)-2-methyl propionate]
- antihypercholesteremic / antihyperlipidemic properties [2]: has antihypercholesteremic properties
- Toxicity (LD50) [3]: 1.7 gm/kg
- ED15 [1, 4]: 15 mg/kg
- ED20 [1, 4]: 22 mg/kg
- ED15 [1, 5]: 25 mg/kg
- ED20 [1, 5]: 32 mg/kg

SMILES: COc1ccc(Cl)cc1C(=O)NCCc1ccc(-c2ccc(OC(C)(C)C(=O)O)cc2)cc1 [A, 2-methyl-2-{4-[2-(2-methoxy-5-chloro-benzamido)-ethyl]-biphenyl-4'-oxy}-propionic acid]
- ED20 [1, 4]: 16 mg/kg
- ED20 [1, 5]: 4.41 mg/kg
- LD50 at 336 h (Acute toxicity, oral): > 10000 mg/kg
- animals died (white mice): 0 out of 5

SMILES: COC(=O)C(C)(C)Oc1ccc(-c2ccc(Cl)cc2)cc1 [D, methyl 2-[4-(4-chlorophenyl)-phenoxy]-2-methyl-propionate]
- antihypercholesteremic / antihyperlipidemic properties [2]: has antihyperlipidemic properties
- ED15 [1, 4]: 6.9 mg/kg
- ED20 [1, 4]: 11 mg/kg
- ED15 [1, 5]: 4.4 mg/kg
- ED20 [1, 5]: 5.6 mg/kg
- LD50 at 336 h (Acute toxicity, oral): 5000 mg/kg
- animals died (white mice): 3 out of 5

SMILES: CCOC(=O)C(C)(C)Oc1ccc(CCNC(=O)c2cc(Cl)ccc2OC)cc1 [E, ethyl 2-methyl-2-{4-[2-(2-methoxy-5-chloro-benzamido)-ethyl]-phenoxy}-propionate]
- antihypercholesteremic / antihyperlipidemic properties [2]: exhibits similar properties
- ED15 [1, 4]: 3.6 mg/kg
- ED20 [1, 4]: 5 mg/kg
- ED15 [1, 5]: 3.6 mg/kg
- ED20 [1, 5]: 5 mg/kg
- LD50 at 336 h (Acute toxicity, oral): 2500 mg/kg
- animals died (white mice): 3 out of 6
